Patent publication US9040506B2, “7,11-methanocycloocta [B] quinoline derivative as highly functionalizable acetylcholinesterase inhibitors” (priority 2010, dated 2015)
Like-named read-outs stand apart in the source and are kept apart here.

Columns and labels:
AChE [1] = target: T1, AChE (Homo sapiens, UniProt P22303); details: Camps et al.; cited from earlier work
rh-AChE = rh-AChE (Homo sapiens, UniProt P22303); test: biochemical; details: read-out: IC50 rh-AChE
rh-BuChE = rh-BuChE (Homo sapiens, UniProt P06276); test: IC50 rh-BuChE; type: biochemical
erythrocyte h-AChE = target: T2, erythrocyte h-AChE (Homo sapiens, UniProt P22303); test: IC50 erythrocyte h-AChE; type: biochemical
T2 construct: from tissue; host or cells: human erythrocytes

AChE [2] = target: T1, AChE; test: AChE inhibition, general statements; type: biochemical
[3] = read-out: IC50 erythrocyte h-AChE

Chain of rh-BuChE (P06276 29-602): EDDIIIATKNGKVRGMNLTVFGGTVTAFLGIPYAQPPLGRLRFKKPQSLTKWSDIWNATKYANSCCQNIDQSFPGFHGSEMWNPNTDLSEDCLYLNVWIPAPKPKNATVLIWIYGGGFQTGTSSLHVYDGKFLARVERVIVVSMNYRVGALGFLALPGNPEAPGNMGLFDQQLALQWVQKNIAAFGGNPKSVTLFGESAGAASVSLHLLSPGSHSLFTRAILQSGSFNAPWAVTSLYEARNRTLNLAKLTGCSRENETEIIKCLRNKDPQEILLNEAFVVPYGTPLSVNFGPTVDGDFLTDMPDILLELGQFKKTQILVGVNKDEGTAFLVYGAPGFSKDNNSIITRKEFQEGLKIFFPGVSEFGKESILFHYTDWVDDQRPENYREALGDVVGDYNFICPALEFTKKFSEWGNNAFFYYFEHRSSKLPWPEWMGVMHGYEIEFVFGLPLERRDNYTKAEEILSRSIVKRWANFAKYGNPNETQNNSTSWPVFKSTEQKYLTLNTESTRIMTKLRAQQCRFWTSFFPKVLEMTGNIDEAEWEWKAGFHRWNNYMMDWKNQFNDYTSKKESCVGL
Chain of rh-AChE (P22303 32-614): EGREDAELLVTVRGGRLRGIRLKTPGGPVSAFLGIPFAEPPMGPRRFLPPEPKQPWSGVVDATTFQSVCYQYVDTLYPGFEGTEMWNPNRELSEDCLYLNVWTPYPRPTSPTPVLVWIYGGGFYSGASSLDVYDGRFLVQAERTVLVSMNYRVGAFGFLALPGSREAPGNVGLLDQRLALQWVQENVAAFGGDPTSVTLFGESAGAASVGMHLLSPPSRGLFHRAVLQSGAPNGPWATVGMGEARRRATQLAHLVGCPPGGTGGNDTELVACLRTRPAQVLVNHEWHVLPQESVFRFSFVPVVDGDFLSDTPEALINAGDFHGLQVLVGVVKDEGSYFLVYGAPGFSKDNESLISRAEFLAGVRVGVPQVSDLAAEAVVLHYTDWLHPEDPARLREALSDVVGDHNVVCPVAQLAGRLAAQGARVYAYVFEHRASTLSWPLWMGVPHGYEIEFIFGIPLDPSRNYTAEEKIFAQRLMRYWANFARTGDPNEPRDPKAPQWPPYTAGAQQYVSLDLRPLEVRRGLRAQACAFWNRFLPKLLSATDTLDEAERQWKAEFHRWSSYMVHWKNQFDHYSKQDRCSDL
T2 sequence (P22303 32-617 isoform P22303-2 limits assumed): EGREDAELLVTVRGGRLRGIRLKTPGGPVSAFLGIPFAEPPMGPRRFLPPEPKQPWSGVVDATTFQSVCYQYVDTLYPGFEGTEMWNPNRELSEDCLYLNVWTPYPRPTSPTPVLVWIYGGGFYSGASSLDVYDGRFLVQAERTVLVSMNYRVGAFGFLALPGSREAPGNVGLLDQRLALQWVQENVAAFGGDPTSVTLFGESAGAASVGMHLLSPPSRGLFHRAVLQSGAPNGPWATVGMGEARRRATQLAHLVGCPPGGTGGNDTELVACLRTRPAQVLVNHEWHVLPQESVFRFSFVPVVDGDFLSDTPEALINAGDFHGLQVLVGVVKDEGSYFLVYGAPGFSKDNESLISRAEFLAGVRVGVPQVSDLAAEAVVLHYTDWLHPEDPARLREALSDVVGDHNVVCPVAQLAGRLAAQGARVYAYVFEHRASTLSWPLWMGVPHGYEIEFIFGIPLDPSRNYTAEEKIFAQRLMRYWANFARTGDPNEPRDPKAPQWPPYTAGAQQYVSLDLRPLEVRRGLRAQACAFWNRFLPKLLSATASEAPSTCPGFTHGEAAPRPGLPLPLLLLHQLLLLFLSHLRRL
T1 sequence (P22303 32-614): as the sequence (P22303 32-614) above

## CCC1=CC2Cc3nc4cc(Cl)ccc4c(N)c3[C@@H](C1)C2 [Huprine X]
AChE [1]
  IC50: ~1 nM

## Nc1c2c(nc3cc(Cl)ccc13)CC1C=C(CCO)CC2C1 (centres unmarked) [HUP 2, 2-(12-Amino-3-chloro-6,7,10,11-tetrahydro-7,11-methanocycloocta[b]quinolin-9-yl) Ethanol]
rh-AChE
  IC50: 1.05 ± 0.13 nM
rh-BuChE; read-out: IC50 rh-BuChE
  IC50: 1240 nM
Erythrocyte h-AChE; [3]
  IC50: 6.15 nM
AChE [2]
  activity compared with Huprine X: as high as the Huprine X

## C=CC(=O)OCCC1=CC2Cc3nc4cc(Cl)ccc4c(N)c3C(C1)C2 (centres unmarked) [HUP 18, 2-(12-Amino-3-chloro-6,7,10,11-tetrahydro-7,11-methanocycloocta[b]quinolin-9-yl)ethyl Acrylate]
rh-AChE
  IC50: 20.4 ± 4.6 nM
rh-BuChE; read-out: IC50 rh-BuChE
  IC50: 207 ± 16 nM
Erythrocyte h-AChE; [3]
  IC50: 129 nM

## CCOC(=O)C(CCC1=CC2Cc3nc4cc(Cl)ccc4c(N)c3C(C1)C2)C(=O)OCC (centres unmarked) [HUP 27, Diethyl[2-(12-Amino-3-chloro-6,7,10,11-tetrahydro-7,11-methanocycloocta[b]quinolin-9-yl)ethyl]malonate]
rh-AChE
  IC50: 6.09 ± 0.42 nM
rh-BuChE
  IC50: 319 ± 2 nM
Erythrocyte h-AChE
  IC50: 46.4 nM

## CS(=O)(=O)OCCCCC1=CC2Cc3nc4cc(Cl)ccc4c(N)c3C(C1)C2 (centres unmarked) [HUP 31, 4-(12-Amino-3-chloro-6,7,10,11-tetrahydro-7,11-methanocycloocta[b]quinolin-9-yl)butyl Methanesulfonate]
rh-AChE
  IC50: 4.76 ± 1.68 nM
rh-BuChE; read-out: IC50 rh-BuChE
  IC50: 243 ± 12 nM
Erythrocyte h-AChE; [3]
  IC50: 13.3 nM
